Each block holds one compound with its values, some of them ahead of it.
Legend:
[1] = tested on: GI tract; test: X-ray diagnostic imaging of mucoadhesion in the GI tract (rats); type: in vivo
Experimental: (§1) The amount and site of the mucoadhesion was determined by x-ray diagnostic imaging. The imaging was performed in anesthetized rats with the exception of G05-R1 samples which were imaged in fasted and anesthetized ferrets. Images were obtained using the Siemens C-Arm Siremobil 3U x-ray unit. The imaging dose was 10 ml/kg administered via gastric intubation to the anesthetized animal. X-rays were taken at 15, 30, 45 and 60 minutes and at 1, 2, 5 and 24 hours post-dose. A 10-15 ml volume of air was introduced to the animal at 30 minutes to produce a double contrast image.
(§2) Images were evaluated by the criteria of: coating, homogeneity, rate of gastric emptying and the total transit time. These are considered to be a measure of the stability of the suspension during transit down the GI tract and the ability of the formulation to adhere to the lower gastrointestinal tract. Suspensions were rated excellent when there was a uniform coating with transradiation of long intestinal segments, sufficient radiodensity to delineate anatomical structure, rapid emptying and transit, and stability and homogeneity during GI transit. A plus sign (+) was assigned when imaging in the lower GI was exceptional, a minus sign (−) as given when it was not. […]

[2] = tested on: GI tract; test: X-ray diagnostic imaging of mucoadhesion in the GI tract (ferrets); type: in vivo; settings: suspension milled in Pluronic F127
Experimental: as §1, §2

[3] = Table 3
[4] = Particle size determination; type: physicochemical; settings: wet grinding
Experimental: As used herein, particle size is determined on the basis of weight average particle size as measured by conventional particle size measuring techniques well known to those skilled in the art, such as sedimentation field flow fractionation, photon correlation spectroscopy, or disk centrifugation. […] By “effective particle size” is meant that at least 90% of the particles in the sample measured by the above-noted weight sizing techniques have a particle size less than the stated size.
The particle size was determined during the milling process and again immediately before the suspensions were administered. Particle size was determined on the Coulter Model N4MD Submicron Particle Analyzer (Coulter Corp.; Miami Lakes, Fla.); and using the Microtrac Ultrafine Particle Analyzer (Leeds and Northrup Co.; St. Petersburg, Fla.).

Structure (SMILES): CCOC(=O)c1c(I)c(NC(C)=O)c(I)c(NC(C)=O)c1I [WIN 8883, ethyl 3,5-bis(acetylamino)-2,4,6-triodobenzoate]
Upper and lower GI imaging rating ([1]; suspension milled in/stabilized with Pluronic F127, rats): excellent
GI imaging rating ([1]; suspension stabilized with F88, for the upper GI only): excellent
Upper and lower GI imaging rating [2]: excellent
Aqueous Solubility [3]: <5 µg/mL

Structure (SMILES): C[C@@H]1[C@H](O)[C@@H](C)/C=C/C=C/C=C/C=C/C=C/C=C/C=C/[C@H](O[C@@H]2O[C@H](C)[C@@H](O)[C@H](N)[C@@H]2O)C[C@@H]2O[C@](O)(C[C@@H](O)C[C@@H](O)[C@H](O)CC[C@@H](O)C[C@@H](O)CC(=O)O[C@H]1C)C[C@H](O)[C@H]2C(=O)O [amphotericin B]
Particle Size Weight Average ([4]; amphotericin B 5%, poloxamer F-68 2.5%): 426 nm
Particle Size Weight Average ([4]; amphotericin B 5%, poloxamer F-127 2.5%): 510 nm

Structure (SMILES): CCC(=O)OCC(=O)[C@@]1(OC(=O)CC)[C@@H](C)C[C@H]2[C@@H]3CCC4=CC(=O)C=C[C@]4(C)[C@@]3(Cl)[C@@H](O)C[C@@]21C [beclomethasone dipropionate]
Particle Size Weight Average ([4]; beclomethasone dipropionate 5%, poloxamer F-68 2.5%): 221 nm
Particle Size Weight Average ([4]; beclomethasone dipropionate 5%, poloxamer F-127 2.5%): 244 nm

Structure (SMILES): CS(=O)(=O)OCCCCOS(C)(=O)=O [busulfan]
Particle Size Weight Average ([4]; busulfan 2%, poloxamer F-108 0.5%): 387 nm

Structure (SMILES): CC[C@@]1(O)C(=O)OCc2c1cc1n(c2=O)Cc2cc3ccccc3nc2-1 [camptothecin]
Particle Size Weight Average ([4]; camptothecin 2%, poloxamer F-68 2%): 107 nm
Particle Size Weight Average ([4]; camptothecin 2%, poloxamer F-108 1%): 111 nm

Structure (SMILES): COC1=CC(=O)C[C@@H](C)[C@]12Oc1c(Cl)c(OC)cc(OC)c1C2=O [griseofulvin]
Particle Size Weight Average ([4]; griseofulvin 5%, poloxamer F-68 2.5%): 617 nm
Particle Size Weight Average ([4]; griseofulvin 5%, poloxamer F-127 2.5%): 617 nm

Structure (SMILES): CC(C)Cc1ccc(C(C)C(=O)O)cc1 (centres unmarked) [ibuprofen]
Particle Size Weight Average ([4]; ibuprofen 3%, poloxamer F-68 2.0%): 253 nm

Continued, values first:

Particle Size Weight Average ([4]; indomethacin 5%, poloxamer F-68 1%): 228 nm
Particle Size Weight Average ([4]; indomethacin 5%, poloxamer F-68 2.5%): 193 nm
Structure (SMILES): COc1ccc2c(c1)c(CC(=O)O)c(C)n2C(=O)c1ccc(Cl)cc1 [indomethacin]

Particle Size Weight Average ([4]; methotrexate 5%, poloxamer F-68 2.5%): 196 nm
Particle Size Weight Average ([4]; methotrexate 5%, poloxamer F-127 2.5%): 248 nm
Structure (SMILES): CN(Cc1cnc2nc(N)nc(N)c2n1)c1ccc(C(=O)N[C@@H](CCC(=O)O)C(=O)O)cc1 [methotrexate]

Particle Size Weight Average ([4]; naproxen 5%, poloxamer F-68 3.0%): 270 nm
Structure (SMILES): COc1ccc2cc([C@H](C)C(=O)O)ccc2c1 [naproxen]

Particle Size Weight Average ([4]; phenytoin 5%, poloxamer F-68 2.5%): 385 nm
Particle Size Weight Average ([4]; phenytoin 5%, poloxamer F-108 2.5%): 385 nm
Particle Size Weight Average ([4]; phenytoin 5%, poloxamer F-127 2.5%): 431 nm
Structure (SMILES): O=C1NC(=O)C(c2ccccc2)(c2ccccc2)N1 [phenytoin]

Particle Size Weight Average ([4]; piposulfan 2%, poloxamer F-108 0.5%): 339 nm
Structure (SMILES): CS(=O)(=O)OCCC(=O)N1CCN(C(=O)CCOS(C)(=O)=O)CC1 [piposulfan]
